According to US9400280B2, “Piperidine derivatives and methods of treating hepatitis B infections” (Novira Therapeutics, Inc., priority 2014, dated 2016):

Experiments:
[1] = system: HBV replication in HepG2-2.2.15 cells; experiment: Dot-blot assay (inhibition of HBV replication); type: cell-based; conditions: at 10 μM, six days, reduction in HBV DNA levels
Experimental: Compounds active in the HBV assembly assay are tested for their activity and toxicity in cellular assay. In the first anti-viral assay, the ability of compounds to inhibit HBV replication in an HBV-producing hepatoma cell line using the dot-blot method is evaluated.
Briefly, confluent monolayers of HepG2-2.2.15 cells are incubated with complete medium containing various concentrations of a test compound. Three days later, the culture medium is replaced with fresh medium containing the appropriately diluted test compound. Six days following the initial administration of the test compound, the cell culture supernatant is collected, and cell lysis is performed. The samples are applied onto Nylos membranes and DNA is immobilized to the membrane by UV cross-linking. After pre-hybridization, the HBV probe is added and the hybridization is performed overnight. The membranes are exposed to the Kodak films; antiviral activity is calculated from the reduction in HBV DNA levels (EC50). The EC50 for antiviral activity is calculated from the dose response curves of active compounds. Assay performance over time is monitored by the use of the standard positive control compounds ETV, BAY 41-4109, and HAP-1.
Selected compounds were tested for their activity and toxicity in cellular assay. In the first anti-viral assay, the ability of compounds to inhibit HBV replication in an HBV-producing hepatoma cell line using the dot-blot method was evaluated.
Confluent monolayers of HepG2-2.2.15 cells were incubated with complete medium containing various concentrations of a test compound. Three days later, the culture medium was replaced with fresh medium containing the appropriately diluted test compound. Six days following the initial administration of the test compound, the cell culture supernatant was collected, and cell lysis was performed. The samples were applied onto Nylos membranes and DNA was immobilized to the membrane by UV cross-linking. After pre-hybridization, the HBV probe was added and the hybridization was performed overnight. The membranes were exposed to the Kodak films; antiviral activity was calculated from the reduction in HBV DNA levels (EC50). The EC50 for antiviral activity was calculated from the dose response curves of active compounds. Assay performance over time was monitored by the use of the standard positive control compounds ETV, BAY 41-4109, and HAP-1.

[2] = target: HBV C150Bo capsid (core) protein (Hepatitis B virus genotype D subtype adw, UniProt P03147, C107A/C48A/C61A/R150C); experiment: HBV assembly assay (fluorescence quenching in vitro capsid assembly); type: biochemical; conditions: at about 10 μM; 50 mM Hepes pH 7.5, 150 mM NaCl, 1 hour at room temperature
Sequence of HBV C150Bo capsid (core) protein (P03147 1-150 C48A/C61A/C107A/R150C): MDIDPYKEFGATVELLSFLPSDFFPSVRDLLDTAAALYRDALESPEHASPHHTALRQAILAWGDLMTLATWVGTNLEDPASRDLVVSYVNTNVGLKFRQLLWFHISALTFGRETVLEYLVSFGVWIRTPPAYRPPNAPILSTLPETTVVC

Compound	Activity in dot-blot-assay [1]	Activity (HBV assembly assay) [2]
O=C(Nc1cc(F)c(F)c(F)c1)c1ccc(F)c(S(=O)(=O)N2CCC(O)C(F)(F)C2)c1 (stereo not drawn) [Compound 1732]	+ (‘+’ indicates >50% activity at 10 (μM))	+ (‘+’ indicates >50% activity at about 10 (μM))
O=C(Nc1ccc(F)c(F)c1)c1ccc(F)c(S(=O)(=O)N2CCC(O)C(F)(F)C2)c1 (stereo not drawn) [Compound 1733]	+ (‘+’ indicates >50% activity at 10 (μM))	+ (‘+’ indicates >50% activity at about 10 (μM))
O=C(Nc1ccc(F)c(Cl)c1)c1ccc(F)c(S(=O)(=O)N2CCC(O)C(F)(F)C2)c1 (stereo not drawn) [Compound 1734]	+ (‘+’ indicates >50% activity at 10 (μM))	+ (‘+’ indicates >50% activity at about 10 (μM))
O=C(Nc1ccc(F)c(Cl)c1)c1ccc(O)c(S(=O)(=O)N2CCC(O)C(F)(F)C2)c1 (stereo not drawn) [Compound 1963]		+ (‘+’ indicates >50% activity at about 10 (μM))
COc1ccc(C(=O)Nc2ccc(F)c(Cl)c2)cc1S(=O)(=O)N1CCC(O)C(F)(F)C1 (stereo not drawn) [Compound 1964]		+ (‘+’ indicates >50% activity at about 10 (μM))
CCOc1ccc(C(=O)Nc2ccc(F)c(Cl)c2)cc1S(=O)(=O)N1CCC(O)C(F)(F)C1 (stereo not drawn) [Compound 1965]		+ (‘+’ indicates >50% activity at about 10 (μM))
O=C(Nc1ccc(F)c(Cl)c1)c1ccc(OC2CC2)c(S(=O)(=O)N2CCC(O)C(F)(F)C2)c1 (stereo not drawn) [Compound 1967]		+ (‘+’ indicates >50% activity at about 10 (μM))
O=C(Nc1ccc(F)c(Cl)c1)c1ccc(CF)c(S(=O)(=O)N2CCC(O)C(F)(F)C2)c1 (stereo not drawn) [Compound 1995]	+ (‘+’ indicates >50% activity at 10 (μM))	+ (‘+’ indicates >50% activity at about 10 (μM))
